Each structure is given as a SMILES string. Converted amounts (≈) assume the structure as drawn.

Consider three compounds from patent publication US5607927A, “Cephalosporin derivative” (Meiji Seika Kaisha, Ltd., priority 1992, dated 1997).

The test system of data set [1] is Sta. aureus M 133 (methicillin-resistant). The data set can be described thus: minimum growth inhibitory concentration, ordinary serial dilution technique. Type of data set: cell-based. The following applies: Staphylococcus aureus, 10^6 CFU/ml, 35° C., 18 to 20 hours. As for the experimental part:
(§1) In this test example, antibacterial activities of the following typical examples of the compound (I) of the present invention upon various bacterial species are illustrated by showing their minimum growth inhibitory concentrations measured by the ordinary serial dilution technique. The measurement was made by inoculating 10^6 CFU/ml of each test strain on a Sensitivity Plate Medium N (Nissui Pharmaceutical Co., Ltd.) and culturing the inoculated cells at 35° C. for 18 to 20 hours. Test Compounds:
(§2) Note: (*), methicillinresistant Staphylococcus aureus

The test system of data set [2] is Sta. aureus M 126 (methicillin-resistant). Described as above. Type of data set: cell-based. The conditions noted are these: Staphylococcus aureus, 10^6 CFU/ml, 35° C., 18 to 20 hours. The method, then:
as §1, §2

Data set [3] is described as follows: acute toxicity (LD50) i.v. in mice. The following applies: mouse, in vivo, iv.
Data set [4] can be described thus: concentration in blood after subcutaneous injection (serum concentration by HPLC). Type of data set: in vivo. The following applies: sc, ICR mice, male, 0.5 mg per mouse subcutaneous; for Cmax: 4 weeks old, serum by HPLC, read-out: Maximum concentration in blood; for half-life / AUC: serum, Gauss-Newton method; for half-life: read-out: Half-life period (converted); for AUC: sampling 5 minutes to 2 hours, read-out: AUC (area under the plasma concentration-time curve). The method, then: This test example illustrates that the following typical examples of the compound of the present invention can give and maintain their concentrations in blood at high levels after subcutaneous injection. Test Compounds:
The test was carried out in the following manner. Using five male mice of ICR line (4 weeks old, 1 individual/group for blood collection), 0.5 mg of each test compound dissolved in 0.2 ml of sterile water for injection use was administered to each mouse by subcutaneous injection. Blood collection was carried out after 5 minutes, 15 minutes, 30 minutes, 1 hour and 2 hours after the administration. Each of the thus collected blood samples was subjected to ordinary post-treatment, and then serum concentration of the cephem compound was measured by making use of HPLC. Half-life period and AUC (area under the plasma concentration-time curve) as pharmacokinetic parameters were calculated in accordance with the Gauss-Newton method.

Data set [5] relates to K. pneumoniae PCI 602. The data set can be described thus: minimum growth inhibitory concentration, ordinary serial dilution technique. The following applies: Klebsiella pneumoniae, PCI602, 10^6 CFU/ml, 35° C., 18 to 20 hours. The class given is cell-based. As for the experimental part:
(§3) In this test example, antibacterial activities of the following typical examples of the compound (I) of the present invention upon various bacterial species are illustrated by showing their minimum growth inhibitory concentrations measured by the ordinary serial dilution technique. The measurement was made by inoculating 10^6 CFU/ml of each test strain on a Sensitivity Plate Medium N (Nissui Pharmaceutical Co., Ltd.) and culturing the inoculated cells at 35° C. for 18 to 20 hours.

For data set [6], the system named is M. morganii 1510/S-l. The description is as above. Type of data set: cell-based. The following applies: Morganella morganii, 1510/SL, 10^6 CFU/ml, 35° C., 18 to 20 hours. The method, then:
as §3

Data set [7] deals with P. vulgaris GN 76. The description is as above. The class given is cell-based. The conditions noted are these: Proteus vulgaris, GN76, 10^6 CFU/ml, 35° C., 18 to 20 hours. The method, then:
as §3

Data set [8] has as its system E. coli NIHJ JC-2. The data set is described as above. Type of data set: cell-based. The following applies: Escherichia coli, NIHJJC2, 10^6 CFU/ml, 35° C., 18 to 20 hours. The method, then: as §3
The subject of data set [9] is Sta. aureus 209P JC-1. Described as above. The class given is cell-based. The following applies: Staphylococcus aureus, 10^6 CFU/ml, Sensitivity Plate Medium N, 35° C., 18 to 20 hours. As for the experimental part:
as §3

Data set [10] has as its system Sta. epidermidis ATCC 14990. The data set is described as above. The class given is cell-based. The conditions noted are these: Staphylococcus epidermidis, ATCC14990, 10^6 CFU/ml, 35° C., 18 to 20 hours. As for the experimental part: as §3

Take `CO/N=C(\C(=O)NC1C(=O)N2C(C(=O)O)=C(Sc3nc4ccccc4s3)CS[C@H]12)c1nsc(N)n1` (some centres unmarked) [Compound A, 7-{(Z)-2-(5-amino-1,2,4-thiadiazol-3-yl)-2-methoxyiminoacetamido}-3-(benzothiazol-2-yl)thio-3-cephem-4-carboxylic acid]: the MIC in data set [1] worked out at 1.56 µg/mL (≈ 2.84 µM); in data set [2], 3.13 µg/mL (≈ 5.69 µM); in [5] it was 3.13 µg/mL (≈ 5.69 µM); in [6], 1.56 µg/mL (≈ 2.84 µM); in [7], 3.13 µg/mL (≈ 5.69 µM); in [8], 3.13 µg/mL (≈ 5.69 µM). The minimum inhibitory concentration (MIC) in data set [9] and in data set [10] was 0.39 µg/mL (≈ 0.71 µM) throughout. The compound further showed a median lethal dose (LD50) in [3] of 1000 to 1500 mg/kg. Also, the Cmax in [4] is 126 µg/mL. For the same compound, the half-life in data set [4] was 1.8 h. Besides, the AUC in data set [4] was 343 µg·h/mL.

Consider `CO/N=C(\C(=O)NC1C(=O)N2C(C(=O)O)=C(Sc3nc4cccnc4s3)CS[C@H]12)c1nsc(N)n1` (some centres unmarked) [Compound B, 7-{(Z)-2-(5-amino-1,2,4-thiadiazol-3-yl)-2-methoxyiminoacetamido}-3-(thiazolo[5,4-b]pyridin-2-yl)thio-3-cephem-4-carboxylic acid], for which the MIC was determined as 3.13 µg/mL (≈ 5.68 µM) in data set [1]; 12.5 µg/mL (≈ 22.7 µM) in data set [2]; 3.13 µg/mL (≈ 5.68 µM) in [5]; 50 µg/mL (≈ 90.8 µM) in data set [6]; 12.5 µg/mL (≈ 22.7 µM) in data set [7]; 3.13 µg/mL (≈ 5.68 µM) in data set [8]. The figures for the MIC in [9] and in data set [10] were 0.78 µg/mL (≈ 1.42 µM) and 0.39 µg/mL (≈ 0.708 µM), respectively. Also, in data set [4], the Cmax is 110 µg/mL. Also, the half-life in [4] is 1.3 h. The AUC in [4] turned out to be 230 µg·h/mL.

For the compound `CO/N=C(\C(=O)NC1C(=O)N2C(C(=O)O)=C(Sc3nc4ccccc4o3)CSC12)c1csc(N)n1` (centres unmarked) [Compound C, 7-{(Z)-2-(2-aminothiazol-4-yl)-2-methoxy-iminoacetamido}-3-(benzoxazol-2-yl)thio-3-cephem-4-carboxylic acid], in data set [4], the Cmax is 141 µg/mL, the half-life was 2.1 h and the AUC stood at 442 µg·h/mL.
